Reference: US4260613A, “Pyridoxine derivatives” (Crinos Industria Farmacobiologica S.p.A., priority 1978, dated 1981)

What was measured:
Format in all cases: in vivo
mouse = test: Acute toxicity, LD50 per os in the mouse (sole dose, 18 h fasting); details: in words, vs 2-(4-isobutylphenyl)-propionic acid
Description: The acute toxicity has been determined by administering the substances per os in a sole dose to the mouse after 18 hours of fasting. The LD50 has been determined according to Litchfield and Wilcoxon (J. Pharmacol. Exp. Ther. 96, 99, 1949).

[1] = tested on: caraganin-edema, normal rat; test: Caraganin-edema test according to Winter et al in the normal rat (anti-inflammatory activity); details: 25 mg/kg per os, 3hrs, vs controls
Description: Caraganin-edema test according to Winter et al (Proc. Soc. Exp. Biol. Med., 111, 544, 1962) in the normal rat. The anti-inflammatory activity is expressed as a percentage of inhibition, after 3 and 6 hours, with respect to the controls.

rat = test: Ulcer-causing activity, UD50 per os in the rat (gastric lesions 7 h after treatment); details: in words, vs 2-(4-isobutylphenyl)-propionic acid
Description: The ulcer-causing activity has been determined by administering the substances per os to rats which have fasted 18 hours and evaluating the presence of gastric lesions 7 hours after the treatment. The UD50 has been determined according to Litchfield and Wilcoxon (J. Pharmacol. Exp. Ther. 96, 99, 1949).

Row | SMILES | toxicity with respect to the free acid (mouse) | ANTI-INFLAMMATORY Inhibition % [1] [%] | ulcer-causing activity with respect to the free acid (rat)
1 | Cc1ncc(COC(=O)C(C)c2ccc(CC(C)C)cc2)c(CO)c1O (centres unmarked) [2-(4-isobutyl-phenyl)-propionic pyridoxine 5-ester] | lower toxicity | 43.6 | lower toxicity and ulcer-causing activity
2 | Cc1ncc(COC(=O)C(C)c2ccc(CC(C)C)cc2)c2c1OC(C)(C)OC2 (centres unmarked) [2-(4-isobutylphenyl)-propionic isopropylidene-pyridoxine 5-ester] | lower toxicity | – | lower toxicity and ulcer-causing activity
